Data published in patent publication US20260015350A1, “AZAQUINAZOLINE PAN-KRAS INHIBITORS” (Mirati Therapeutics, Inc., priority 2022, published 2026).

What was measured:
KRas^G12V = biological target: T1, KRas^G12V (Homo sapiens, UniProt P01116, G12V); assay: KRas binding assay (TR-FRET tracer displacement), KRas G12V
T1 construct: Biotinylated KRas (corresponding to amino acids 1-169, produced at Accelegan Inc.); biotin (biotinylated); purchased Accelegan Inc

KRas^G12D = biological target: T2, KRas^G12D (Homo sapiens, UniProt P01116, G12D); assay: KRas binding assay (TR-FRET tracer displacement), KRas G12D
T2 construct: Biotinylated KRas (corresponding to amino acids 1-169, produced at Accelegan Inc.); biotin (biotinylated); purchased Accelegan Inc
T2 sequence (P01116 1-169 isoform P01116-2 G12D): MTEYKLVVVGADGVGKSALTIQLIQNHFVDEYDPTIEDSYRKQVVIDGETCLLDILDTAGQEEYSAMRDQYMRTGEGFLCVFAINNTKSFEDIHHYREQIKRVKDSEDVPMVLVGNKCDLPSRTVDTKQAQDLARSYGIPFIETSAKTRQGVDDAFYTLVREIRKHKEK

KRas^G12R = biological target: T3, KRas^G12R (Homo sapiens, UniProt P01116, G12R); assay: KRas binding assay (TR-FRET tracer displacement), KRas G12R
T3 construct: Biotinylated KRas (corresponding to amino acids 1-169, produced at Accelegan Inc.); biotin (biotinylated); purchased Accelegan Inc
T3 sequence (P01116 1-169 isoform P01116-2 G12R): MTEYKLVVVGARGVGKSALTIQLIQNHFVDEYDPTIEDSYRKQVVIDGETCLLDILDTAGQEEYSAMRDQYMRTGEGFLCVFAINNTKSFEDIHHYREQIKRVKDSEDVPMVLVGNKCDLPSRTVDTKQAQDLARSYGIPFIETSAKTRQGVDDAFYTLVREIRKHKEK

[1] = system: KRas-mediated phosphorylation of ERK in H727 cells; assay: Inhibition of KRas-mediated phosphorylation of ERK (Cisbio HTRF pERK), H727 cells; type: cell-based; conditions: Homo sapiens, NCI-H727, H727 cells; HTRF pERK
Procedure, shortened: (§1)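 Compound treatment lasts 3 hrs on 6,000 seeded cells, testing 10 doses from a 10 uM top concentration in 3-fold decrements at 0.8% final DMSO. Trametinib at 0.2 uM defines the Min signal. Detection is HTRF on cold-lysed cell extracts.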

[2] = system: KRas-mediated phosphorylation of ERK in AsPC-1 cells; assay: Inhibition of KRas-mediated phosphorylation of ERK (Cisbio HTRF pERK), AsPC-1 cells; type: cell-based; conditions: Homo sapiens, ASPC1, AsPC-1 cells; HTRF pERK
Procedure, shortened: as §1

[3] = system: KRas-mediated phosphorylation of ERK in MKN1 cells; assay: Inhibition of KRas-mediated phosphorylation of ERK (Cisbio HTRF pERK), MKN1 cells; type: cell-based; conditions: Homo sapiens, MKN-1
Protocol: (§2) Inhibition of KRas Phosphorylation of ERK (HTRF) by Exemplary Compounds of Formula (I)
(§3) Cisbio HTRF Advanced PERK Assay Catalog #64AERPEH
(§4) Day 1: Seed 6,000 cells/well-25 μl/well in 384-well white solid bottom plate; RPM1_10% FBS. Incubate overnight at 37° C./5% CO2.
(§5) Incubate for 4 hours at room temperature covered.
(§6) Read HTRF using ClarioStar

[4] = system: KRas-mediated phosphorylation of ERK in A549 cells; assay: Inhibition of KRas-mediated phosphorylation of ERK (Cisbio HTRF pERK), A549 cells; type: cell-based; conditions: Homo sapiens, HTRF pERK
Procedure, shortened: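 Using 6,000 cells per well, compounds are applied for 3 hrs and cells then lysed at 4° C with shaking for 40 mins. Phospho-ERK is measured by HTRF after 2 hrs of lysate incubation with the d2/Cryptate antibody mixture.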

[5] = system: KRas-mediated phosphorylation of ERK in PSN1 cells; assay: Inhibition of KRas-mediated phosphorylation of ERK (Cisbio HTRF pERK), PSN1 cells; type: cell-based; conditions: Homo sapiens
Protocol: as §2, §3, §4, §5, §6

[6] = system: KRas-mediated phosphorylation of ERK in H460 cells; assay: Inhibition of KRas-mediated phosphorylation of ERK (Cisbio HTRF pERK), H460 cells; type: cell-based; conditions: Homo sapiens, NCI-H460, HTRF pERK
Procedure, shortened: as §1

T1 sequence (P01116 1-169 isoform P01116-2 G12V): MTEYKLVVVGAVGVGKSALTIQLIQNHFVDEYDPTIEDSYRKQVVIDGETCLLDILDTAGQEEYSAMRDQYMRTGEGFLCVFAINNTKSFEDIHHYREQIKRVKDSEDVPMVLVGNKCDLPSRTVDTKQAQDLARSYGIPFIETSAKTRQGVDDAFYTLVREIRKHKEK

IC50 (KRas^G12V) [nM]	IC50 (KRas^G12D) [nM]	IC50 (KRas^G12R) [nM]	IC50 [1] [nM]	IC50 [2] [nM]	IC50 [3] [nM]	IC50 [4] [nM]	IC50 [5] [nM]	IC50 [6] [nM]	Structure (SMILES)
6	7	2	351	567	5	152	> 10000		CCc1c(F)ccc2cc(O)cc(-c3ncc4c(N5CCCC(N6CCCCS6(=O)=O)C5)nc(OC[C@@]56CCCN5C[C@H](F)C6)nc4c3F)c12 (stereo partly drawn) [Example 664, 2-(1-(7-(8-ethyl-7-fluoro-3-hydroxynaphthalen-1-yl)-8-fluoro-2-(((2R,7aS)-2-fluorohexahydro-1H-pyrrolizin-7a-yl)methoxy)pyrido[4,3-d]pyrimidin-4-yl)piperidin-3-yl)-1,2-thiazinane 1,1-dioxide]
8	5	2	258	294	1	467	> 10000	125	CCc1c(F)ccc2cc(O)cc(-c3ncc4c(N5CCCO[C@@H](CCO)C5)nc(OC[C@@]56CCCN5C[C@H](F)C6)nc4c3F)c12 [Example 578, 5-ethyl-6-fluoro-4-(8-fluoro-2-(((2R,7aS)-2-fluorohexahydro-1H-pyrrolizin-7a-yl)methoxy)-4-((S)-2-(2-hydroxyethyl)-1,4-oxazepan-4-yl)pyrido[4,3-d]pyrimidin-7-yl)naphthalen-2-ol]
12	14	7	300	376	26	344	> 10000	133	CCc1c(F)ccc2cc(O)cc(-c3ncc4c(N5CCCOC(CCOC)C5)nc(OC[C@@]56CCCN5C[C@H](F)C6)nc4c3F)c12 (stereo partly drawn) [Example 601, 5-ethyl-6-fluoro-4-(8-fluoro-2-(((2R,7aS)-2-fluorohexahydro-1H-pyrrolizin-7a-yl)methoxy)-4-(2-(2-methoxyethyl)-1,4-oxazepan-4-yl)pyrido[4,3-d]pyrimidin-7-yl)naphthalen-2-ol]
100	85	238	> 10000	> 10000	> 10000		> 10000		CCc1c(F)ccc2cc(O)cc(-c3ncc4c(N5CCCn6cnnc6C5)nc(OC[C@@]56CCCN5C[C@H](F)C6)nc4c3F)c12 [Example 563, 4-(4-(6,7-dihydro-5H-[1,2,4]triazolo[4,3-a][1,4]diazepin-8 (9H)-yl)-8-fluoro-2-(((2R,7aS)-2-fluorotetrahydro-1H-pyrrolizin-7a(5H)-yl)methoxy)pyrido[4,3-d]pyrimidin-7-yl)-5-ethyl-6-fluoronaphthalen-2-ol]
262	2240	839	6210	> 10000	2980		> 10000		CCc1c(F)ccc2cc(O)cc(-c3ncc4c(N5CCC[C@H](c6ccnn6C)CC5)nc(OC[C@@]56CCCN5C[C@H](F)C6)nc4c3F)c12 [Example 634, 5-ethyl-6-fluoro-4-(8-fluoro-2-(((2R,7aS)-2-fluorotetrahydro-1H-pyrrolizin-7a(5H)-yl)methoxy)-4-((S)-4-(1-methyl-1H-pyrazol-5-yl)azepan-1-yl)pyrido[4,3-d]pyrimidin-7-yl)naphthalen-2-ol]
< 2	2	4	28	32	22		2290		CCc1c(F)ccc2cc(O)cc(-c3ncc4c(N5CCC[C@@](C)(O)C5)nc(OC[C@@]56CCCN5C[C@H](F)CC6)nc4c3F)c12 [Example 815, (R)-1-(7-(8-ethyl-7-fluoro-3-hydroxynaphthalen-1-yl)-8-fluoro-2-(((6R,8aS)-6-fluorohexahydroindolizin-8a (1H)-yl)methoxy)pyrido[4,3-d]pyrimidin-4-yl)-3-methylpiperidin-3-ol]
3	< 2	< 2	14	32	3		125		O=S1(=O)CCC2(CCCN(c3nc(OC[C@@]45CCCN4C[C@H](F)C5)nc4c(F)c(-c5cc(O)cc6ccc(F)c(Cl)c56)ncc34)C2)N1 (stereo partly drawn) [Example 807, 7-(7-(8-chloro-7-fluoro-3-hydroxynaphthalen-1-yl)-8-fluoro-2-(((2R,7aS)-2-fluorotetrahydro-1H-pyrrolizin-7a(5H)-yl)methoxy)pyrido[4,3-d]pyrimidin-4-yl)-2-thia-1,7-diazaspiro[4.5]decane 2,2-dioxide]
6	5	10	2380	1900	943		3240		CCc1c(F)ccc2cc(O)cc(-c3ncc4c(N5CCCC6(CCNS(=O)(=O)N6)C5)nc(OC[C@@]56CCCN5C[C@H](F)C6)nc4c3F)c12 (stereo partly drawn) [Example 656, 8-(7-(8-ethyl-7-fluoro-3-hydroxynaphthalen-1-yl)-8-fluoro-2-(((2R,7aS)-2-fluorotetrahydro-1H-pyrrolizin-7a(5H)-yl)methoxy)pyrido[4,3-d]pyrimidin-4-yl)-2-thia-1,3,8-triazaspiro[5.5]undecane 2,2-dioxide]

Second part, the compound before the results:

Structure (SMILES)	IC50 (KRas^G12V) [nM]	IC50 (KRas^G12D) [nM]	IC50 (KRas^G12R) [nM]	IC50 [1] [nM]	IC50 [2] [nM]	IC50 [3] [nM]	IC50 [4] [nM]	IC50 [5] [nM]	IC50 [6] [nM]
Cc1cccc2cc3[nH]ncc3c(-c3ncc4c(N5CCCC6(CNS(=O)(=O)N6)C5)nc(OCC56CCCN5CCC6)nc4c3F)c12 (stereo not drawn) [Example 808, 7-(8-fluoro-7-(5-methyl-1H-benzo[f]indazol-4-yl)-2-((tetrahydro-1H-pyrrolizin-7a(5H)-yl)methoxy)pyrido[4,3-d]pyrimidin-4-yl)-2-thia-1,3,7-triazaspiro[4.5]decane 2,2-dioxide]	< 2	< 2	< 2	1690	3070	653		> 10000	
CCc1c(F)ccc2cc(O)cc(-c3ncc4c(N5C[C@H]6CC[C@@H](C5)N6C5CC(F)(F)C5)nc(OC[C@@]56CCCN5C[C@H](F)C6)nc4c3F)c12 [Example 831, 4-(4-((1R,5S)-8-(3,3-difluorocyclobutyl)-3,8-diazabicyclo[3.2.1]octan-3-yl)-8-fluoro-2-(((2R,7aS)-2-fluorotetrahydro-1H-pyrrolizin-7a(5H)-yl)methoxy)pyrido[4,3-d]pyrimidin-7-yl)-5-ethyl-6-fluoronaphthalen-2-ol]	36	42	38	1080	331	13		> 10000	
CCc1c(F)ccc2cc(O)cc(-c3ncc4c(N5CCCCC(n6ccnn6)C5)nc(OC[C@@]56CCCN5C[C@H](F)C6)nc4c3F)c12 (stereo partly drawn) [Example 830, 4-(4-(3-(1H-1,2,3-triazol-1-yl)azepan-1-yl)-8-fluoro-2-(((2R,7aS)-2-fluorotetrahydro-1H-pyrrolizin-7a(5H)-yl)methoxy)pyrido[4,3-d]pyrimidin-7-yl)-5-ethyl-6-fluoronaphthalen-2-ol]	5	5	12	267	272	188		7860	
CCc1c(F)ccc2cc(O)cc(-c3ncc4c(N5CCC6CNC(=O)NC6C5)nc(OC[C@@]56CCCN5C[C@H](F)C6)nc4c3F)c12 (stereo partly drawn) [Example 592, 7-(7-(8-ethyl-7-fluoro-3-hydroxynaphthalen-1-yl)-8-fluoro-2-(((2R,7aS)-2-fluorohexahydro-1H-pyrrolizin-7a-yl)methoxy)pyrido[4,3-d]pyrimidin-4-yl)octahydropyrido[3,4-d]pyrimidin-2(1H)-one]	119	790	281	> 10000	> 10000	> 10000		> 10000	
CCc1c(F)ccc2cc(O)cc(-c3ncc4c(NCc5cc(C(=O)N(C)C)nn5C5COC5)nc(OC[C@@]56CCCN5C[C@H](F)C6)nc4c3F)c12 [Example 810, 5-(((7-(8-ethyl-7-fluoro-3-hydroxynaphthalen-1-yl)-8-fluoro-2-(((2R,7aS)-2-fluorotetrahydro-1H-pyrrolizin-7a(5H)-yl)methoxy)pyrido[4,3-d]pyrimidin-4-yl)amino)methyl)-N,N-dimethyl-1-(oxetan-3-yl)-1H-pyrazole-3-carboxamide]	4	13	4	4980	> 10000	110		> 10000	
